From US9346815B2, “5-chloro-2-difluoromethoxyphenyl pyrazolopyrimidine compounds, compositions and methods of use thereof” (Genentech, Inc., priority 2014, dated 2016) come the findings set out here.

Assay [1] has as its system JAK1-dependent STAT6 phosphorylation downstream of IL-13 stimulation in TF-1 human erythroleukemia cells. The experiment in a line: JAK1 pathway assay in TF-1 cells (IL-13-pSTAT6, MSD). It is filed as cell-based. The note with it: Homo sapiens, TF-1, TF-1 cells, read-out: IL13-pSTAT6 EC50_TF-1. The essentials: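 TF-1 cells starved of GM-CSF overnight, assayed serum-free; BEAS-2B cells in complete growth medium. Lysate pSTAT6 measured by MSD; EC50 derived.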

Assay [2] deals with isolated recombinant JAK1 kinase domain (Homo sapiens (Human), UniProt P23458). The experiment in a line: JAK1 enzyme assay (Caliper LabChip, peptide phosphorylation). It is filed as biochemical. The note with it: isolated recombinant JAK1 kinase domain, 25 μM ATP.
Assay [3] addresses isolated recombinant JAK2 kinase domain (Homo sapiens (Human), UniProt O60674). The experiment in a line: JAK2 enzyme assay (Caliper LabChip, peptide phosphorylation). The assay is classed as biochemical. The note with it: 25 μM ATP.

Chain of isolated recombinant JAK2 kinase domain (O60674 849-1124): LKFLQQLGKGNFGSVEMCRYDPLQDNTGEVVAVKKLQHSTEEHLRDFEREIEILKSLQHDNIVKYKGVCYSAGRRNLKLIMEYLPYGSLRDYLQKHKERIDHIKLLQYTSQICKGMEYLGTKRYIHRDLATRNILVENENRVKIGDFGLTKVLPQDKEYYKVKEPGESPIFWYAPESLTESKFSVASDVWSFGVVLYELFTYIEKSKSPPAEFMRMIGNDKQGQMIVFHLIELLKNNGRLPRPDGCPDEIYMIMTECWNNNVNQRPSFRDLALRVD
Chain of isolated recombinant JAK1 kinase domain (P23458 875-1153): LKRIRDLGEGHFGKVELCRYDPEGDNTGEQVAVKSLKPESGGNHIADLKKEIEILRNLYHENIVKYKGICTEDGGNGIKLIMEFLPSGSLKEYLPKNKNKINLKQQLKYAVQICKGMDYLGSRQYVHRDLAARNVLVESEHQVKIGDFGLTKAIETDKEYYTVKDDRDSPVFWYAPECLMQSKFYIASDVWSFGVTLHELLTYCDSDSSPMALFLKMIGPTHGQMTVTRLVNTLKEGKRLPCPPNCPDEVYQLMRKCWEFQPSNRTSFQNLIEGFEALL

As to `CN(C)C(=O)CCCN1CCC(n2cc(NC(=O)c3c(N)nn4cccnc34)c(-c3cc(Cl)ccc3OC(F)F)n2)CC1` [Example 148, 2-amino-N-[3-[5-chloro-2-(difluoromethoxy)phenyl]-1-[1-[4-(dimethylamino)-4-oxo-butyl]-4-piperidyl]pyrazol-4-yl]pyrazolo[1,5-a]pyrimidine-3-carboxamide], the EC50 in assay [1] came to 9.4 nM. Moreover, the inhibition constant Ki was 0.64 nM in assay [2] and 0.1 nM in assay [3].
As to `CC(=O)NCCCN1CCC(n2cc(NC(=O)c3c(N)nn4cccnc34)c(-c3cc(Cl)ccc3OC(F)F)n2)CC1` [Example 150, N-[1-[1-(3-acetamidopropyl)-4-piperidyl]-3-[5-chloro-2-(difluoromethoxy)phenyl]pyrazol-4-yl]-2-amino-pyrazolo[1,5-a]pyrimidine-3-carboxamide], the EC50 in assay [1] is 20.1 nM. Besides, the Ki in assay [2] was found to be 0.73 nM; in assay [3] it was 0.17 nM.
In the same order, the values of `CN(CCCN1CCC(n2cc(NC(=O)c3c(N)nn4cccnc34)c(-c3cc(Cl)ccc3OC(F)F)n2)CC1)C(=O)c1ccccc1` [Example 151, 2-amino-N-[1-[1-[3-[benzoyl(methyl)amino]propyl]-4-piperidyl]-3-[5-chloro-2-(difluoromethoxy)phenyl]pyrazol-4-yl]pyrazolo[1,5-a]pyrimidine-3-carboxamide] are 93.8 nM, 2 nM and 0.42 nM.
For `O=C(CCCN1CCC(n2cc(NC(=O)c3cnn4cccnc34)c(-c3cc(Cl)ccc3OC(F)F)n2)CC1)NC1CCOCC1` [Example 152, N-[3-[5-chloro-2-(difluoromethoxy)phenyl]-1-[1-[4-oxo-4-(tetrahydropyran-4-ylamino)butyl]-4-piperidyl]pyrazol-4-yl]pyrazolo[1,5-a]pyrimidine-3-carboxamide], in assay [1], the EC50 turned out to be 11.9 nM. The Ki in assay [2] came out at 1.08 nM; in assay [3], 0.19 nM.
In the case of `O=C(CCCN1CCC(n2cc(NC(=O)c3cnn4cccnc34)c(-c3cc(Cl)ccc3OC(F)F)n2)CC1)NC1COC1` [Example 153, N-[3-[5-chloro-2-(difluoromethoxy)phenyl]-1-[1-[4-(oxetan-3-ylamino)-4-oxo-butyl]-4-piperidyl]pyrazol-4-yl]pyrazolo[1,5-a]pyrimidine-3-carboxamide], the EC50 in assay [1] was 36.5 nM. Besides, the Ki in assay [2] amounted to 1.55 nM; in assay [3] it was 0.27 nM.
The matching figures for `CN1CCN(CCCN2CCC(n3cc(NC(=O)c4cnn5cccnc45)c(-c4cc(Cl)ccc4OC(F)F)n3)CC2)C1=O` [Example 154, N-[3-[5-chloro-2-(difluoromethoxy)phenyl]-1-[1-[3-(3-methyl-2-oxo-imidazolidin-1-yl)propyl]-4-piperidyl]pyrazol-4-yl]pyrazolo[1,5-a]pyrimidine-3-carboxamide]: 2.7 nM, 1.42 nM and 0.23 nM.
`O=C(Nc1cn(C2CCN(CCCN3CCCC3=O)CC2)nc1-c1cc(Cl)ccc1OC(F)F)c1cnn2cccnc12` [Example 155, N-[3-[5-chloro-2-(difluoromethoxy)phenyl]-1-[1-[3-(2-oxopyrrolidin-1-yl)propyl]-4-piperidyl]pyrazol-4-yl]pyrazolo[1,5-a]pyrimidine-3-carboxamide]: the EC50 in assay [1] stood at 5.1 nM. The Ki in assay [2] is 1.56 nM; in assay [3], 0.24 nM.
Regarding `CCNC(=O)CCCN1CCC(n2cc(NC(=O)c3cnn4cccnc34)c(-c3cc(Cl)ccc3OC(F)F)n2)CC1` [Example 156, N-[3-[5-chloro-2-(difluoromethoxy)phenyl]-1-[1-[4-(ethylamino)-4-oxo-butyl]-4-piperidyl]pyrazol-4-yl]pyrazolo[1,5-a]pyrimidine-3-carboxamide], in assay [1], the EC50 came to 31.8 nM. Also, the values for the Ki in assay [2] and in assay [3] were 1.53 nM and 0.19 nM, respectively.
As to `CNC(=O)CN1CCC(n2cc(NC(=O)c3cnn4cccnc34)c(-c3cc(Cl)ccc3OC(F)F)n2)CC1` [Example 157, N-[3-[5-chloro-2-(difluoromethoxy)phenyl]-1-[1-[2-(methylamino)-2-oxo-ethyl]-4-piperidyl]pyrazol-4-yl]pyrazolo[1,5-a]pyrimidine-3-carboxamide], in assay [1], the EC50 stood at 9.2 nM. In addition, the Ki in assay [2] was 1.32 nM; in assay [3], 0.75 nM.
The matching figures for `O=C(Nc1cn(C2CCN(CCCN3CCOCC3)CC2)nc1-c1cc(Cl)ccc1OC(F)F)c1cnn2cccnc12` [Example 158, N-[3-[5-chloro-2-(difluoromethoxy)phenyl]-1-[1-(3-morpholinopropyl)-4-piperidyl]pyrazol-4-yl]pyrazolo[1,5-a]pyrimidine-3-carboxamide]: 38.8 nM, 2.12 nM and 0.26 nM.
As to `O=C(Nc1cn(C2CCN(CCCN3CCSCC3)CC2)nc1-c1cc(Cl)ccc1OC(F)F)c1cnn2cccnc12` [Example 159, N-[3-[5-chloro-2-(difluoromethoxy)phenyl]-1-[1-(3-thiomorpholinopropyl)-4-piperidyl]pyrazol-4-yl]pyrazolo[1,5-a]pyrimidine-3-carboxamide], the EC50 in assay [1] turned out to be 57.8 nM. In addition, the Ki is 2.32 nM in assay [2] and 0.24 nM in assay [3].
The matching figures for `CNC(=O)CCN1CCC(n2cc(NC(=O)c3cnn4cccnc34)c(-c3cc(Cl)ccc3OC(F)F)n2)CC1` [Example 160, N-[3-[5-chloro-2-(difluoromethoxy)phenyl]-1-[1-[3-(methylamino)-3-oxo-propyl]-4-piperidyl]pyrazol-4-yl]pyrazolo[1,5-a]pyrimidine-3-carboxamide]: 19.3 nM, 3.02 nM and 0.39 nM.
For the molecule `O=C(Nc1cn(C2CCN(CCCN3CCS(=O)(=O)CC3)CC2)nc1-c1cc(Cl)ccc1OC(F)F)c1cnn2cccnc12` [Example 161, N-[3-[5-chloro-2-(difluoromethoxy)phenyl]-1-[1-[3-(1,1-dioxo-1,4-thiazinan-4-yl)propyl]-4-piperidyl]pyrazol-4-yl]pyrazolo[1,5-a]pyrimidine-3-carboxamide], in assay [1], the EC50 was found to be 22.3 nM. In addition, the results for the inhibitory constant (Ki) in assay [2] and in assay [3] were 1.23 nM and 0.13 nM, respectively.
`NC(=O)CCCN1CCC(n2cc(NC(=O)c3c(N)nn4cccnc34)c(-c3cc(Cl)ccc3OC(F)F)n2)CC1` [Example 162, 2-amino-N-[1-[1-(4-amino-4-oxo-butyl)-4-piperidyl]-3-[5-chloro-2-(difluoromethoxy)phenyl]pyrazol-4-yl]pyrazolo[1,5-a]pyrimidine-3-carboxamide]: the EC50 in assay [1] stood at 15.4 nM. Also, the Ki in assay [2] turned out to be 0.59 nM; in assay [3] it was 0.18 nM.
As for `Nc1nn2cccnc2c1C(=O)Nc1cn(C2CCN(CCCN3CCNC3=O)CC2)nc1-c1cc(Cl)ccc1OC(F)F` [Example 163, 2-amino-N-[3-[5-chloro-2-(difluoromethoxy)phenyl]-1-[1-[3-(2-oxoimidazolidin-1-yl)propyl]-4-piperidyl]pyrazol-4-yl]pyrazolo[1,5-a]pyrimidine-3-carboxamide], in assay [1], the EC50 is 7.3 nM. The Ki in assay [2] stood at 0.69 nM; in assay [3], 0.19 nM.

Broadly, the Ki is a dissociation constant, usually derived from enzyme kinetics or from competition with a known ligand.
